Laboratory results: PMC7504639, “Fluorescence Lifetime and Intensity of Thioflavin T as Reporters of Different Fibrillation Stages: Insights Obtained from Fluorescence Up-Conversion and Particle Size Distribution Measurements” (International Journal of Molecular Sciences, 2020)
Structures can show the parent of a compound that is named as a salt.

Target: T1, Human recombinant insulin (Ins); protofibrils / mature fibrils (Homo sapiens, UniProt P01308)
T1 construct: mature two-chain insulin (cut from proinsulin), recombinant, PanEco; aggregated to amyloid fibrils at pH 2, 62 °C; not the native monomer
T1 sequence (P01308 25-54): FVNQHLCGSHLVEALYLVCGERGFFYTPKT
T1 sequence (P01308 90-110): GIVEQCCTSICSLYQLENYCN
Experiment: fluorescence-mode nanoparticle tracking (fibril staining)
Format: binding
Conditions: mature amyloid fibrils, not native insulin

## CC[n+]1c(/C=C/c2c(C)cc(N(C)C)cc2C)sc2ccccc21 [2M-DMASEBT, trans2-(′-(dimethylamino)-2,6-dimethylstyryl)-3-ethyl-1,3-benzothiazole tosylate]
  fluorescence-mode nanoparticle tracking (fibril staining): Fibrils were stained using the ThT derivative 2M-DMASEBT
